Measurements as given in patent US20180318199A1, “Pharmaceutical Composition Having Anti-Aging Properties against High-Glucose” (TAIWAN LEADER BIOTECH CORP., priority 2017, published 2018).

Assays:
Format in all cases: cell-based, human
HNDFs = assay: Cell-cycle distribution by flow cytometry (PI) in HNDFs; conditions: ANM 10 μM or NAC 100 μM + HG 30 mM, 72 h; HG 71.2%, NG 46.5%
Protocol: Senescence is well-defined as an irreversible arrest in the G0/G1 phase of the cell-cycle, triggered by various physiological and chemical stimuli including HG. It is thus paradoxical that HG-induced senescence is associated with cell-cycle arrest. Please refer to FIG. 3A˜FIG. 3C, which are views showing HG-induced growth arrest blocked by ANM in HNDFs. As shown in the figures, to further explore this paradoxical relationship, HNDFs are treated with HG and ANM or N-acetylcysteine (NAC). In FIG. 3A, HNDFs are incubated with ANM (10 μM) or NAC (100 μM) in the presence of HG (30 mM) for 72 h. Cell-cycle distribution is measured by flow cytometer using PI. Percentage of cell population in each transition phase is shown in a histogram view.
HNDFs at a density of 5×10^5 cells in 10 cm dishes are treated with ANM or NAC in the presence or absence of HG for 72 h. Cells are collected, washed with PBS and fixed in 95% cold-ethanol, and kept at −20° C. overnight. The cell pellet is then washed again with PBS and centrifuged at 1500×g for 5 min. The pellet is re-suspended in 1 mL PI/Triton X-100 (20 μg/mL PI, 0.1% Triton X-100 and 0.2 mg/mL RNAse) and incubated on ice for 30 min. The total cellular DNA content is analyzed with a flow cytometer (Beckman Coulter FC500). Data are acquired and analyzed using CXP software (Beckman Coulter).

Nrf2 [1] = assay: ARE luciferase reporter assay (Nrf2 transcriptional activity) in HNDFs; conditions: 6 h; for relative ARE luciferase activity, co-treated with HG: ANM 10 μM or NAC 100 μM + HG 30 mM, HG alone 2.5-fold; for relative ARE luciferase activity, compound alone: ANM 10 μM or NAC 100 μM, control 1-fold, HG 2.5-fold
Protocol: Therefore, to determine whether ANM augments Nrf2 transcriptional activity, ARE-harboring luciferase reporter assay is used. In FIG. 5E, to determine the Nrf2 transcriptional activity, HNDFs are transiently transfected with ARE promoter construct using lipofectamine and incubated with ANM (10 μM) or NAC (100 μM) in the presence or absence of HG (30 mM) for 6 h. Cell lysates are mixed with luciferase reagents and quantified using an illuminometer. Relative ARE promoter activity is calculated by dividing the relative luciferace unit (RLU) of treated cells by RLU of untreated cells (NG).
Activation of P13K/AKT and mitogen-activated protein kinases (MAPKs), including ERK1/2, JNK/SAPK and p38 MAPK, facilitates Nrf2 transcriptional activation in a variety of human cell lines. […] To elucidate the upstream signaling events involved in ANM-induced Nrf2 transcriptional activity, cells are pre-incubated with pharmacological inhibitors of P13K/AKT (LY294002), ERK1/2 (PD98059), SAPK/JNK (SP600125) and p38MAPK (SB203580) for 2 h and treated with ANM for 6 h in the presence of HG. In FIG. 5G, HNDFs are pre-incubated with AKT, ERK1/2, JNK/SAPK and p38 MAPK inhibitors, including LY294002 (LY, 30 μM), PD98059 (PD, 30 μM), SP600125 (SP, 30 μM) and SB203580 (SB, 30 μM), respectively, for 2 h and then incubated with ANM (10 μM) in the presence of HG (30 mM) for 6 h. Cytoplasmic and nuclear fractions are prepared and subjected to western blot analysis. GAPDH and histone H3 are served as internal controls for the cytoplasmic and nuclear fraction, respectively.
ARE promoter activity is measured using a dual-luciferase reporter assay system (Promega, Madison, Wis.). […] Cells are then transfected with ARE plasmid (Qiagen, Hilden, Germany) using Lipofectamine 2000 (Invitrogen) and incubated for 36 h. […] The cell lysate is prepared and incubated with luciferase agents and the relative luminescence intensity is quantified using a spectrophotometer (Hidex Oy, Turku, Finland).

Nrf2 [2] = assay: Nrf2 nuclear localization by immunofluorescence in HNDFs; conditions: ANM 10 μM or NAC 100 μM, 2 h
Protocol: Transcriptional activation of Nrf2 is dependent upon the rate of […] followed by disassociation from cytoplasmic Keap-1. In FIG. 5F, to determine the nuclear localization of Nrf2, HNDFs are incubated with ANM (10 μM) or NAC (100 μM) in the presence or absence or HG (30 mM) for 2 h. The protein expression and localization of Nrf2 are measured by immunofluorescence using Nrf2 specific primary antibody and fluorescein isothiocyanate-conjugated secondary antibody (green). The subcellular and nuclear localization of Nrf2 is photographed using a fluoroscence microscope. DAPI (1 μM) is used to stain the nucleus.
HNDFs at a density of 1×10^4 cells/well are cultured in an eight-well glass Nunc Lab-Tek chamber (ThermoFisher Scientific, Waltham, Mass.). Cells are treated with ANM or NAC in the presence or absence of HG for 2-72 h. After incubation, culture medium is removed and cells are fixed in 4% paraformaldehyde for 15 min, permeabilized with 0.1% Triton X-100 for 10 min, washed and blocked with 10% FBS in PBS, and then incubated overnight with the corresponding primary antibodies in 1.5% FBS. […] Next, the cells are stained with 1 μg/mL 4′,6-diamidino-2-phenylindole (DAPI, Cell Signaling Technology) for 5 min, washed with PBS, and visualized using a fluorescence microscope (Motic Electric Group) at 40× magnification.

| Structure (SMILES) | cell population in the G0/G1 phase (HNDFs) | relative ARE luciferase activity, co-treated with HG (Nrf2 [1]) | relative ARE luciferase activity, compound alone (Nrf2 [1]) | Nrf2 expression in the nucleus (Nrf2 [2]) |
| --- | --- | --- | --- | --- |
| CC(=O)N[C@@H](CS)C(=O)O [NAC, N-acetylcysteine, reference compound] | partially blocks | 8.2 fold | 6.3 fold | elevated Nrf2 expression in the nucleus |
| C=C(CCC(C)C1CCC2C3=C(C(=O)C(O)C21C)C1(C)CCC(O)C(C)C1CC3)C(C)C(=O)O (centres unmarked) [ANM, antcin M] | 49.5% | 8.5 fold | 5.8 fold | elevated Nrf2 expression in the nucleus |
